# In article PMC9014412 (Journal of medicinal chemistry, 2022):
# Tests used:
# HDAC2 = HDAC2 (Homo sapiens, UniProt Q92769); assay: HDAC2 degradation by quantitative western blotting in HCT116 cells; details: HCT116 cells, 24 h, 0.1, 1 and 10 μM; compared with 1 at 10 μM
# Procedure: (§1) Initially, each PROTAC was tested at 0.1, 1, and 10 μM in HCT116 cells for 24 h; then, cell extracts were prepared and evaluated for HDAC1/2 and 3 degradation by quantitative western blotting.
# (§2) This cell line was incubated at 37 °C with 5% CO2.
# (§3) HCT116 cells were seeded into 6-well plates (4 × 10^5 cells/well for 24 h, 2 × 10^5 cells/well for 48 h) for 24 h and then treated with DMSO or compounds at the indicated concentrations in fresh medium (5 mL total). After desired treatment time, the cells were harvested and then lysed in lysis buffer (50 mM Tris-HCl, 150 mM NaCl, 0.5% NP-40, 0.5% Triton X-100) supplemented with a protease inhibitor (Sigma, P8340). The suspension was incubated on ice for 30 min and centrifuged (18,000 rcf, 15 min, 4 °C); then, the supernatant was collected, and protein concentrations were quantified via Bradford Assay using Protein Assay Dye Reagent Concentrate (BIO-RAD). […] PageRuler Plus Prestained Ladder was used for size standards. After gel electrophoresis at 140 V for 90 min, the separated proteins were transferred onto a nitrocellulose membrane at 30 V for 60 min. The membranes were probed with primary antibodies (see the Supporting Information) for 60−90 min. Blots were developed with complimentary IRDye-conjugated secondary antibodies, and the bands were visualized using an Odyssey infrared imaging system. Image processing and band intensity quantification were performed using Image Studio Lite.
# H3K56ac = assay: Histone H3 Lys 56 acetylation (H3K56ac) western blotting; type: cell-based, human; details: HCT116 cells, 24 h, screen at 0.1, 1, 10 μM; relative to DMSO, CI-994 and 1 at 10 μM
# Excerpt: Supporting Information: Biology
# Representative blots of two independent biological replicates.
# HDAC3 = HDAC3 (Homo sapiens, UniProt O15379); assay: HDAC3 degradation by quantitative western blotting in HCT116 cells; details: HCT116 cells, 24 h, 0.1, 1 and 10 μM; compared with 1 at 10 μM
# Sequence of HDAC3 (O15379 whole entry): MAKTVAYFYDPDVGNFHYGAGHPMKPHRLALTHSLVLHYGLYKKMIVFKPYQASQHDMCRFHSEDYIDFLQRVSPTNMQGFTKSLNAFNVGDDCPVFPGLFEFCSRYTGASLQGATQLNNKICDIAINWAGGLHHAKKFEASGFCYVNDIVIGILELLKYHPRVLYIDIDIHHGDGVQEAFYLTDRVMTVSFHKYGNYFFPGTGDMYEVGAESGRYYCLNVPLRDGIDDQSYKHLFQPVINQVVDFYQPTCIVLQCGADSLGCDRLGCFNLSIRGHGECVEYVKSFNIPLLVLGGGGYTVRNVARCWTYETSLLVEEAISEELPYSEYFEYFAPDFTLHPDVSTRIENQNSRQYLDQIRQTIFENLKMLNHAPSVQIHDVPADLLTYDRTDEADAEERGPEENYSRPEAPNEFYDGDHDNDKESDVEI
# Sequence of HDAC3 (Q9Y618 389-480 partner limits assumed): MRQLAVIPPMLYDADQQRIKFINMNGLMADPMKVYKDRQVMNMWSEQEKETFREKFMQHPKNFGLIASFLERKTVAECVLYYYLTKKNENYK
# Procedure: as §1, §2, §3
# HDAC1 = HDAC1 (Homo sapiens, UniProt Q13547); assay: HDAC1 degradation by quantitative western blotting in HCT116 cells; details: HCT116 cells; for HDAC1 degradation in initial screen (in words): 24 h, 0.1, 1 and 10 μM, compared with 1 at 10 μM
# Sequence of HDAC1 (Q13547 whole entry): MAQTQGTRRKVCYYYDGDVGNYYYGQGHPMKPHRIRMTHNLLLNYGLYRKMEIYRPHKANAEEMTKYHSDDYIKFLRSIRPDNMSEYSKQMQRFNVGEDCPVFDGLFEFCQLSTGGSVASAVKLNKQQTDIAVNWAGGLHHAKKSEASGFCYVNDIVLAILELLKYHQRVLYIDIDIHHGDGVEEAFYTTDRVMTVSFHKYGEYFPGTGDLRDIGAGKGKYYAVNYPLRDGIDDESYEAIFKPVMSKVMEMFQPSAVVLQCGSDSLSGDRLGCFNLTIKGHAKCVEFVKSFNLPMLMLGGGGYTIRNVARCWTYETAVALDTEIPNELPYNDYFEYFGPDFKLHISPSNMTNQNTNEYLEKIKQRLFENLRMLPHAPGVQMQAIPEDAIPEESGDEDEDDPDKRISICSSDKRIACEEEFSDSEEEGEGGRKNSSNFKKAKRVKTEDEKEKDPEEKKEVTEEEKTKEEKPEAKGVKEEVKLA
# Procedure: as §1, §2, §3
# Sequence of HDAC2 (Q92769 whole entry): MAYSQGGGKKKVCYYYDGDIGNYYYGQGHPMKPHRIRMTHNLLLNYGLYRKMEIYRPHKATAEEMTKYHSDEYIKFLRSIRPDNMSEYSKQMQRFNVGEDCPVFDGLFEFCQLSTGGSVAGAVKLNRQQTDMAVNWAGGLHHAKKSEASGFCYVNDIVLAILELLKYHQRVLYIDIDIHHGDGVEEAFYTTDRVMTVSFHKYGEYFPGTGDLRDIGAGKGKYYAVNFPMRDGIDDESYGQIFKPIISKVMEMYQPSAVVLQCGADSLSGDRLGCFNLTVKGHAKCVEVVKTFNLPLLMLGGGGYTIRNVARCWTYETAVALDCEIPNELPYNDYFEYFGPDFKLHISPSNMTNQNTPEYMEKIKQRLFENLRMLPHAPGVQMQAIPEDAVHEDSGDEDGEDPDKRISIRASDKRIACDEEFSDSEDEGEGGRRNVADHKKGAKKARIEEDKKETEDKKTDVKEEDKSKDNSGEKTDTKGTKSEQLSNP
Compound,HDAC2 degradation in initial screen (in words) (HDAC2),H3K56ac levels (in words) (H3K56ac),HDAC3 degradation in initial screen (in words) (HDAC3),HDAC1 degradation in initial screen (in words) (HDAC1),"DC50 (HDAC1; read-out: DC50 HDAC1, 24 h, quantitative western blotting)"
"Cc1ncsc1-c1ccc(CNC(=O)[C@@H]2CC(O)CN2C(=O)[C@@H](NC(=O)COCCOCCOCCOCC(=O)Nc2ccc(C(=O)Nc3ccccc3N)cc2)C(C)(C)C)cc1 (stereo in doubt) [Compound 12, N1-(4-((2-Aminophenyl)carbamoyl)phenyl)-N14-((S)-1-((2S,4S)-4-hydroxy-2-((4-(4-methylthiazol-5-yl)benzyl)carbamoyl)-pyrrolidin-1-yl)-3,3-dimethyl-1-oxobutan-2-yl)-3,6,9,12-tetraoxatetradecanediamide]",almost complete loss of HDAC1/2 degradation,did not increase H3K56ac levels compared to the dimethyl sulfoxide (DMSO) control,generally compromised,almost complete loss of HDAC1/2 degradation,–
"Cc1ncsc1-c1ccc(CNC(=O)[C@@H]2C[C@@H](O)CN2C(=O)C(NC(=O)CCCCCCCCCCC(=O)Nc2ccc(C(=O)Nc3ccc(F)cc3N)cc2)C(C)(C)C)cc1 (stereo in doubt) [Compound 15, N1-(4-((2-Amino-4-fluorophenyl)carbamoyl)phenyl)-N12-((S)-1-((2S,4R)-4-hydroxy-2-((4-(4-methylthiazol-5-yl)benzyl)carbamoyl)-pyrrolidin-1-yl)-3,3-dimethyl-1-oxobutan-2-yl)dodecanediamide]",–,–,enhanced HDAC3 degradation compared to 1,–,–
"Cc1ncsc1-c1ccc(CNC(=O)[C@@H]2C[C@@H](O)CN2C(=O)C(NC(=O)COCCOCCOCC(=O)Nc2ccc(C(=O)Nc3ccc(F)cc3N)cc2)C(C)(C)C)cc1 (stereo in doubt) [Compound 16, (2S,4R)-1-((S)-14-((4-((2-Amino-4-fluorophenyl)carbamoyl)-phenyl)amino)-2-(tert-butyl)-4,14-dioxo-6,9,12-trioxa-3-azatetradecanoyl)-4-hydroxy-N-(4-(4-methylthiazol-5-yl)benzyl)-pyrrolidine-2-carboxamide]",–,–,only modest HDAC3 degradation at 10 μM,–,–
"CC(=O)NC(C(=O)N1C[C@H](O)C[C@H]1C(=O)NCc1ccc(-c2scnc2C)cc1OCCCCNC(=O)CCCCC(=O)Nc1ccc(C(=O)Nc2ccccc2N)cc1)C(C)(C)C (stereo in doubt) [Compound 23, N1-(4-(2-(((2S,4R)-1-((S)-2-Acetamido-3,3-dimethylbutanoyl)-4-hydroxypyrrolidine-2-carboxamido)methyl)-5-(4-methylthiazol-5-yl)phenoxy)butyl)-N6-(4-((2-aminophenyl)carbamoyl)phenyl)-adipamide]",–,did not increase H3K56ac levels greater than the DMSO control,–,only modest degradation of HDAC1,–
"CC(=O)NC(C(=O)N1C[C@H](O)C[C@H]1C(=O)NCc1ccc(-c2scnc2C)cc1OCCCCNC(=O)CCCCCCCC(=O)Nc1ccc(C(=O)Nc2ccccc2N)cc1)C(C)(C)C (stereo in doubt) [Compound 24, N1-(4-(2-(((2S,4R)-1-((S)-2-Acetamido-3,3-dimethylbutanoyl)-4-hydroxypyrrolidine-2-carboxamido)methyl)-5-(4-methylthiazol-5-yl)-phenoxy)butyl)-N9-(4-((2-aminophenyl)carbamoyl)phenyl)-nonanediamide]",–,did not increase H3K56ac levels greater than the DMSO control,–,only modest degradation of HDAC1,–
"Cc1ncsc1-c1ccc(CNC(=O)[C@@H]2C[C@@H](O)CN2C(=O)[C@@H](NC(=O)CCCCCCCCCC(=O)Nc2ccc(C(=O)Nc3ccccc3N)cc2)C(C)(C)C)cc1 [Compound 4, N1-(4-((2-Aminophenyl)carbamoyl)phenyl)-N11-((S)-1-((2S,4R)-4-hydroxy-2-((4-(4-methylthiazol5-yl)benzyl)carbamoyl)pyrrolidin-1-yl)-3,3-dimethyl-1-oxobutan-2-yl)undecanediamide]",–,increased H3K56ac levels to the same degree as the 12-atom linker 1,–,directly comparable to those of the 12-atom linker 1,–
"Cc1ncsc1-c1ccc(CNC(=O)[C@@H]2C[C@@H](O)CN2C(=O)[C@@H](NC(=O)COCCCCCCOCC(=O)Nc2ccc(C(=O)Nc3ccccc3N)cc2)C(C)(C)C)cc1 [Compound 8, (2S,4R)-1-((S)-2-(2-((6-(2-((4-((2-Aminophenyl)carbamoyl)-phenyl)amino)-2-oxoethoxy)hexyl)oxy)acetamido)-3,3-dimethylbutanoyl)-4-hydroxy-N-(4-(4-methylthiazol-5-yl)benzyl)pyrrolidine-2-carboxamide]",–,matched those of CI-994,loss of HDAC3 degradation compared to 6 and 7,comparable to that of 1 but not maintained at 1 μM,–
"Cc1ncsc1-c1ccc(CNC(=O)[C@@H]2C[C@@H](O)CN2C(=O)[C@@H](NC(=O)COCCOCC(=O)Nc2ccc(C(=O)Nc3ccccc3N)cc2)C(C)(C)C)cc1 [Compound 10, (2S,4R)-1-((S)-2-(2-(2-(2-((4-((2-Aminophenyl)carbamoyl)-phenyl)amino)-2-oxoethoxy)ethoxy)acetamido)-3,3-dimethylbutanoyl)-4-hydroxy-N-(4-(4-methylthiazol-5-yl)benzyl)pyrrolidine-2-carboxamide]",almost complete loss of HDAC1/2 degradation,did not increase H3K56ac levels compared to the dimethyl sulfoxide (DMSO) control,generally compromised,almost complete loss of HDAC1/2 degradation,–
"Cc1ncsc1-c1ccc(CNC(=O)[C@@H]2C[C@@H](O)CN2C(=O)[C@@H](NC(=O)COCCOCCOCC(=O)Nc2ccc(C(=O)Nc3ccccc3N)cc2)C(C)(C)C)cc1 [Compound 11, (2S,4R)-1-((S)-14-((4-((2-Aminophenyl)carbamoyl)phenyl)-amino)-2-(tert-butyl)-4,14-dioxo-6,9,12-trioxa-3-azatetradecanoyl)-4-hydroxy-N-(4-(4-methylthiazol-5-yl)benzyl)pyrrolidine-2-carboxamide]",almost complete loss of HDAC1/2 degradation,did not increase H3K56ac levels compared to the dimethyl sulfoxide (DMSO) control,generally compromised,almost complete loss of HDAC1/2 degradation,–
"Cc1ncsc1-c1ccc(CNC(=O)[C@@H]2C[C@@H](O)CN2C(=O)[C@@H](NC(=O)COCCCCCCCCCOCC(=O)Nc2ccc(C(=O)Nc3ccc(F)cc3N)cc2)C(C)(C)C)cc1 [Compound 17, (2S,4R)-1-((S)-2-(2-((9-(2-((4-((2-Amino-4-fluorophenyl)-carbamoyl)phenyl)amino)-2-oxoethoxy)nonyl)oxy)acetamido)-3,3-dimethylbutanoyl)-4-hydroxy-N-(4-(4-methylthiazol-5-yl)-benzyl)pyrrolidine-2-carboxamide]",–,greater than twofold increase in H3K56ac compared to the DMSO control,HDAC3 degradation was also enhanced at 1 μM compared to 1,significant HDAC1 degradation was also still observed at 1 μM,–
"Cc1ncsc1-c1ccc(CNC(=O)[C@@H]2C[C@@H](O)CN2C(=O)[C@@H](NC(=O)CCCCCCCC(=O)Nc2ccc(C(=O)Nc3cc(-c4cccs4)ccc3N)cc2)C(C)(C)C)cc1 [Compound 18, N1-(4-((2-Amino-5-(thiophen-2-yl)phenyl)carbamoyl)phenyl)-N9-((S)-1-((2S,4R)-4-hydroxy-2-((4-(4-methylthiazol-5-yl)benzyl)-carbamoyl)pyrrolidin-1-yl)-3,3-dimethyl-1-oxobutan-2-yl)-nonanediamide]",did not result in enhanced degradation potency of HDAC1/2,–,–,did not result in enhanced degradation potency of HDAC1/2,–
"Cc1ncsc1-c1ccc(CNC(=O)[C@@H]2C[C@@H](O)CN2C(=O)[C@@H](NC(=O)CCCCCCCCCCC(=O)Nc2ccc(C(=O)Nc3cc(-c4cccs4)ccc3N)cc2)C(C)(C)C)cc1 [Compound 19, N1-(4-((2-Amino-5-(thiophen-2-yl)phenyl)carbamoyl)phenyl)-N12-((S)-1-((2S,4R)-4-hydroxy-2-((4-(4-methylthiazol-5-yl)benzyl)-carbamoyl)pyrrolidin-1-yl)-3,3-dimethyl-1-oxobutan-2-yl)-dodecanediamide]",did not result in enhanced degradation potency of HDAC1/2,–,–,did not result in enhanced degradation potency of HDAC1/2,–
"Cc1ncsc1-c1ccc(CNC(=O)[C@@H]2C[C@@H](O)CN2C(=O)[C@@H](NC(=O)COCCOCCOCC(=O)Nc2ccc(C(=O)Nc3cc(-c4cccs4)ccc3N)cc2)C(C)(C)C)cc1 [Compound 20, (2S,4R)-1-((S)-14-((4-((2-Amino-5-(thiophen-2-yl)phenyl)-carbamoyl)phenyl)amino)-2-(tert-butyl)-4,14-dioxo-6,9,12-trioxa-3-azatetradecanoyl)-4-hydroxy-N-(4-(4-methylthiazol-5-yl)benzyl)-pyrrolidine-2-carboxamide]",did not result in enhanced degradation potency of HDAC1/2,did increase H3K56ac to levels similar to 1,–,did not result in enhanced degradation potency of HDAC1/2,3.51 µM
"(2S,4R)-1-((S)-2-(2-((9-((4-((2-Aminophenyl)carbamoyl)phenyl)-amino)-9-oxononyl)oxy)acetamido)-3,3-dimethylbutanoyl)-4-hydroxy-N-(4-(4-methylthiazol-5-yl)benzyl)pyrrolidine-2-carboxamide [Compound 6]",–,increased H3K56ac to comparable or greater levels than CI-994 and 1,significantly enhanced compared to that of 1,–,–
